Test results as given in patent US20260042764A1, “COMPOSITIONS AND METHODS FOR INHIBITION OF KRAS” (TheRas, Inc., priority 2022, published 2026).

What was measured:
HPAC cells (KRAS G12D) = experiment: Cell-based pERK HTRF assay in HPAC cells (Biological Example 5); details: Homo sapiens, HPAC
Experimental: (§1) Biological Example 5: Cell-based PERK HTRF assay in AsPC-1, SW1900, HPAC, Capan-2, RKN, H358, HCT116, KP-2, H1573, A549, MKN1, and HT1080 cells
(§2) The inhibition of ERK phosphorylation, as measured using the HTRF Advanced Phospho-ERK 1/2 (Thr202/Tyr204) Detection Assay kit (Perkin Elmer), was used to determine the effectiveness of test compounds in disrupting KRAS-driven protein/effector signaling in cells.
(§3) On day 1, cells were seeded into 96-well plates at 2.5×10^4 cells/well in 100 μL of complete growth media supplemented with 10% fetal bovine serum (FBS) and incubated at 37° C., in the presence of 5% CO2.
(§4) On day 2, cells were treated with compounds diluted in DMSO at 0.25% final DMSO concentration. Compounds were dosed in a 9-point concentration curve with three-fold dilution between concentrations. Cells were incubated in the presence of compound for two hours at 37° C. Following this treatment period, cells were harvested by aspirating the media, adding 40 μL of kit-supplied 1x lysis buffer per well, and shaking for 30 minutes at 250 rpm at room temperature.
(§5) Following cell lysis, samples were homogenized by pipetting up and down twenty times and 16 μL of cell lysate per well was transferred from the 96-well cell culture plate to two wells of a 384-well detection plate. A complete detection buffer was prepared by diluting D2 and Eu Cryptate antibodies 1:20 in kit-provided detection solution, 4 μL of complete detection buffer was then added to each well with lysate. Plates were incubated with gentle rocking for 24 hours at 4° C.
(§6) Following this incubation period, plates were centrifuged at 500×g for one minute and analyzed on a CLARIOstar plate reader. Data was imported into Microsoft Excel and the signal from the 665 nm channel was divided by the signal from the 620 nm channel. % pERK was calculated as: […]
(§7) Data was imported to the Prism software package (Graphpad) and EC50 values were calculated using the log (inhibitor) vs, response—variable slopc (Four parameters) model.

H1573 cells (KRAS G12A) [1] = experiment: 3D Cell viability assay in H1573 cells (Biological Example 6); assay type: cell-based; details: Homo sapiens, NCI-H1573; H1573 (KRAS G12A) spheroids, 72 hours
Experimental: (§8) Biological Example 6: 3D Cell viability assay in AsPC-1, SW1900, HPAC, Capan-2, RKN, H358, HCT116, KP-2, H1573, A549, MKN1, and HT1080 cells
(§9) The inhibition of cellular viability as a result of test compound treatment in a spheroid assay was measured using the CellTiter-Glow 3D Cell Viability Assay (Promega).
(§10) On Day 1, 1000 cells per well were seeded in 150 μL of complete growth media supplemented with 10% fetal bovine serum (FBS) and incubated at 37° C., in the presence of 5% CO2 in 96-well ultra-low attachment microplates (Corning) for 48 hours undisturbed to allow spheroids to form.
(§11) Following spheroid formation, cells were treated with compounds diluted in DMSO at 0.25% final DMSO concentration. Compounds were dosed in a 9-point concentration curve with three-fold dilution between concentrations. Cells were incubated in the presence of compound for 72 hours at 37° C., in the presence of 5% CO2.
(§12) Following this incubation period, the kit-provided CTG reagent was allowed to equilibrate for 30 minutes at room temperature, 150 μL of equilibrated CTG reagent was added to each well, and the plate was sealed before shaking at 250 rpm for 10 minutes at room temperature to lyse the cells, 150 μL of lysate per well was transferred to a 96-well plate and luminescence was read on a CLARIOstar plate reader.
(§13) Data was imported into the Prism software package (Graphpad) and EC50 values were calculated using the log (inhibitor) vs, response—variable slope (Four parameters) model.

HCT116 cells (KRAS G13D) [2] = experiment: 3D Cell viability assay in HCT116 cells (Biological Example 6); assay type: cell-based; details: Homo sapiens, HCT-116; HCT116 (KRAS G13D) spheroids, 72 hours
Experimental: as §8, §9, §10, §11, §12, §13

[3] = system: MKN1 cells (KRAS amplification); experiment: Cell-based pERK HTRF assay in MKN1 cells (Biological Example 5); details: Homo sapiens, MKN-1, MKN cells (MKN1, KRAS amplification)
Experimental: as §1, §2, §3, §4, §5, §6, §7

[4] = system: Capan-2 cells (KRAS G12V); experiment: Cell-based pERK HTRF assay in Capan-2 cells (Biological Example 5); details: Homo sapiens, Capan-2, Capan-2 (KRAS G12V) cells
Experimental: as §1, §2, §3, §4, §5, §6, §7

HCT116 cells (KRAS G13D) [5] = experiment: Cell-based pERK HTRF assay in HCT116 cells (Biological Example 5); details: Homo sapiens, HCT-116
Experimental: as §1, §2, §3, §4, §5, §6, §7

SW1900 cells (KRAS G12D) [6] = experiment: Cell-based pERK HTRF assay in SW1900 cells (Biological Example 5); details: Homo sapiens, SW1990, SW1990 cells (text: SW1900, KRAS G12D)
Experimental: as §1, §2, §3, §4, §5, §6, §7

SW1900 cells (KRAS G12D) [7] = experiment: 3D Cell viability assay in SW1900 cells (Biological Example 6); assay type: cell-based; details: Homo sapiens; SW1990 (text: SW1900, KRAS G12D) spheroids, 72 hours
Experimental: as §8, §9, §10, §11, §12, §13

HT1080 cells (NRAS) [8] = experiment: 3D Cell viability assay in HT1080 cells (Biological Example 6); assay type: cell-based; details: Homo sapiens, HT-1080; HT1080 (NRAS) spheroids, 72 hours
Experimental: as §8, §9, §10, §11, §12, §13

H1573 cells (KRAS G12A) [9] = experiment: Cell-based pERK HTRF assay in H1573 cells (Biological Example 5); details: Homo sapiens, NCI-H1573
Experimental: as §1, §2, §3, §4, §5, §6, §7

A549 cells (KRAS G12S) [10] = experiment: Cell-based pERK HTRF assay in A549 cells (Biological Example 5); details: Homo sapiens
Experimental: as §1, §2, §3, §4, §5, §6, §7

HT1080 cells (NRAS) [11] = experiment: Cell-based pERK HTRF assay in HT1080 cells (Biological Example 5); details: Homo sapiens, HT-1080
Experimental: as §1, §2, §3, §4, §5, §6, §7

A549 cells (KRAS G12S) [12] = experiment: 3D Cell viability assay in A549 cells (Biological Example 6); assay type: cell-based; details: Homo sapiens; A549 (KRAS G12S) spheroids, 72 hours
Experimental: as §8, §9, §10, §11, §12, §13

[13] = system: Capan-2 cells (KRAS G12V); experiment: 3D Cell viability assay in Capan-2 cells (Biological Example 6); assay type: cell-based; details: Homo sapiens; Capan-2 (KRAS G12V) spheroids, 72 hours
Experimental: as §8, §9, §10, §11, §12, §13

[14] = system: MKN1 cells (KRAS amplification); experiment: 3D Cell viability assay in MKN1 cells (Biological Example 6); assay type: cell-based; details: Homo sapiens, MKN-1; MKN (MKN1, KRAS amplification) spheroids, 72 hours
Experimental: as §8, §9, §10, §11, §12, §13

RKN cells (KRAS G12V) = experiment: 3D Cell viability assay in RKN cells (Biological Example 6); assay type: cell-based; details: RKN (KRAS G12V) spheroids, 72 hours
Experimental: as §8, §9, §10, §11, §12, §13

Compound	IC50 (HPAC cells (KRAS G12D)) [nM]	IC50 (H1573 cells (KRAS G12A) [1]) [nM]	IC50 (HCT116 cells (KRAS G13D) [2]) [nM]	IC50 [3] [nM]	IC50 [4] [nM]	IC50 (HCT116 cells (KRAS G13D) [5]) [nM]	IC50 (SW1900 cells (KRAS G12D) [6]) [nM]	IC50 (SW1900 cells (KRAS G12D) [7]) [nM]	IC50 (HT1080 cells (NRAS) [8]) [nM]	IC50 (H1573 cells (KRAS G12A) [9]) [nM]	IC50 (A549 cells (KRAS G12S) [10]) [nM]	IC50 (HT1080 cells (NRAS) [11]) [nM]	IC50 (A549 cells (KRAS G12S) [12]) [nM]	IC50 [14] [nM]	IC50 [13] [nM]	IC50 (RKN cells (KRAS G12V)) [nM]
N#Cc1c(N)sc2c(F)ccc(-c3c(C(F)(F)F)cc4c(N5CCC[C@@H](O)C5)nc(OC[C@@]56CCCN5C[C@H](F)C6)nc4c3F)c12 [Compound 234]	100 to 1000	≤ 100	100 to 1000	≤ 100	≤ 100	≤ 100	≤ 100	≤ 100	> 1000	≤ 100	≤ 100	> 1000	≤ 100			
C[C@@H]1[C@H](N(C)c2nc(OC[C@@]34CCCN3C[C@H](F)C4)nc3c(F)c(-c4ccc(F)c5sc(N)c(C#N)c45)c(C(F)(F)F)cc23)CCN1C(=O)C1CC1 [Compound 258]	> 1000	≤ 100	100 to 1000	≤ 100		≤ 100	≤ 100	≤ 100	> 1000	≤ 100	≤ 100	> 1000	≤ 100			
N#Cc1c(N)sc2c(F)ccc(-c3c(C(F)(F)F)cc4c(N5CC6CC5CO6)nc(OC[C@@]56CCCN5C[C@H](F)C6)nc4c3F)c12 (some centres unmarked) [Compound 147]		≤ 100	100 to 1000		≤ 100			100 to 1000	> 1000				≤ 100			

The next lines start with results.

IC50 (HPAC cells (KRAS G12D)) [nM]	IC50 (H1573 cells (KRAS G12A) [1]) [nM]	IC50 (HCT116 cells (KRAS G13D) [2]) [nM]	IC50 [3] [nM]	IC50 [4] [nM]	IC50 (HCT116 cells (KRAS G13D) [5]) [nM]	IC50 (SW1900 cells (KRAS G12D) [6]) [nM]	IC50 (SW1900 cells (KRAS G12D) [7]) [nM]	IC50 (HT1080 cells (NRAS) [8]) [nM]	IC50 (H1573 cells (KRAS G12A) [9]) [nM]	IC50 (A549 cells (KRAS G12S) [10]) [nM]	IC50 (HT1080 cells (NRAS) [11]) [nM]	IC50 (A549 cells (KRAS G12S) [12]) [nM]	IC50 [14] [nM]	Compound	IC50 [13] [nM]	IC50 (RKN cells (KRAS G12V)) [nM]
100 to 1000	≤ 100	100 to 1000	≤ 100	≤ 100	≤ 100	≤ 100	100 to 1000	> 1000	≤ 100	≤ 100	> 1000	≤ 100	≤ 100	CC(=O)N1CC[C@@H](N(C)c2nc(OC[C@@]34CCCN3C[C@H](F)C4)nc3c(F)c(-c4ccc(F)c5sc(N)c(C#N)c45)c(Cl)cc23)[C@H]1C [Compound 398]	100 to 1000	
≤ 100		100 to 1000	≤ 100	≤ 100	≤ 100	≤ 100	≤ 100						≤ 100	CCN(c1nc(OC[C@@]23CCCN2C[C@H](F)C3)nc2c(F)c(-c3ccc(F)c4sc(N)c(C#N)c34)c(C(F)(F)F)cc12)[C@H]1C[C@H](C)N(C(=O)[C@@H]2CC2(F)F)C1 (atropisomer, axis not shown) [Compound 751]	≤ 100	≤ 100
